Reference: US20250154163A1, “Pyrimidinone-Containing 17-Beta-Hydroxysteroid Dehydrogenase Type 13 Inhibitors” (ENANTA PHARMACEUTICALS, INC., priority 2023, published 2025)

Legend:
[1] = molecular target: T1, human HSD17β13 (stable HEK293T cell line overexpressing human HSD17β13) (Homo sapiens, UniProt Q7Z5P4); test: HSD17β13 inhibitor cell-based screening assay (conversion of estradiol-d2 to estrone-d2 by RF-MS); settings: conversion of estradiol-d2 to estrone-d2 after 24 hours
T1 construct: expressed in transfected cells
T1 sequence (Q7Z5P4 20-300): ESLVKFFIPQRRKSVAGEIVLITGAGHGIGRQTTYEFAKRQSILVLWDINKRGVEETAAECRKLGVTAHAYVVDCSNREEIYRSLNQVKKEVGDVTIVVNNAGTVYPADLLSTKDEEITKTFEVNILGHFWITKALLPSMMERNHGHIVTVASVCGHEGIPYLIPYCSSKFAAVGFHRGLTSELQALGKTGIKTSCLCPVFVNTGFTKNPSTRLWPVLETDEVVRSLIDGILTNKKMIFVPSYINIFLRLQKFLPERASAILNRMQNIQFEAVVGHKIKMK
How it was run: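 Cellular IC50 is based on 24-h conversion of estradiol-d2 (5 μM final) to estrone-d2, measured by RF-MS in acetonitrile-precipitated supernatants. Assay uses human HSD17β13-overexpressing HEK293T cells (7.5E3/well, 1% charcoal/dextran FBS MEM), with compounds dosed as a 9-point 1:3 series to 10 μM final. ATPlite luminescence on overexpressing and parent lines measured viability.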

[2] = molecular target: T2, Recombinant human 17β-HSD13 (Homo sapiens, UniProt Q7Z5P4); test: 17β-HSD13 rapid-fire mass spectrometry assay (RF/MS assay); type: biochemical; settings: inhibition of 17β-HSD13, RF/MS assay; HSD17B13 80 nM, LTB4 10 μM, NAD+ 0.5 mM, RT 3 h
T2 construct: host or cells: Sf9 insect cells
T2 sequence (Q7Z5P4 20-300): T1 sequence (Q7Z5P4 20-300)
How it was run: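 Purified recombinant human 17β-HSD13 (sf9-expressed, 80 nM) incubated with compound (0–100 μM), 10 μM LTB4 and 0.5 mM NAD+ in 20 mM Tris pH 7.5, 0.005% BSA, 0.01% Tween-20, 3 h at RT. 12-oxo-LTB4 formation quantified by RapidFire MS/MS; percent conversion normalized to controls, IC50 from variable-slope fit, duplicates.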

Structure (SMILES)	IC50 [1]	IC50 [2]
CC(C)(C)c1ccc(-c2nc3sc4c(O)c(Cl)ccc4c3c(=O)n2Cc2cnco2)c(C2CC2)c1 [Example 75, 2-(4-(tert-butyl)-2-cyclopropylphenyl)-7-chloro-8-hydroxy-3-(oxazol-5-ylmethyl)benzo[4,5]thieno[2,3-d]pyrimidin-4(3H)-one]	< 100 nM	< 100 nM
COc1cc(C2CC2)c(-c2nc3sc4c(O)c(Cl)ccc4c3c(=O)n2Cc2cnco2)cc1F [Example 76, 7-chloro-2-(2-cyclopropyl-5-fluoro-4-methoxyphenyl)-8-hydroxy-3-(oxazol-5-ylmethyl)benzo[4,5]thieno[2,3-d]pyrimidin-4(3H)-one]	< 100 nM	< 100 nM
O=c1c2c(nc(-c3cc(Cl)c(Cl)cc3C3CC3)n1Cc1cnco1)sc1c(O)c(Cl)ccc12 [Example 77]	< 100 nM	< 100 nM
COc1cc(C2CC2)c(-c2nc3sc4c(O)c(Cl)ccc4c3c(=O)n2Cc2cnco2)cc1C(F)(F)F [Example 78]	< 100 nM	100 to 1000 nM
O=c1c2c(nc(-c3cc(C(F)(F)F)c(Cl)cc3C3CC3)n1Cc1cnco1)sc1c(O)c(Cl)ccc12 [Example 79]	< 100 nM	< 100 nM
COc1cc(-c2nc3sc4c(O)c(Cl)ccc4c3c(=O)n2Cc2cnco2)c(C2CC2)cc1F [Example 82, 7-chloro-2-(2-cyclopropyl-4-fluoro-5-methoxyphenyl)-8-hydroxy-3-(oxazol-5-ylmethyl)benzo[4,5]thieno[2,3-d]pyrimidin-4(3H)-one]	< 100 nM	< 100 nM
COc1ccc(C2CC2)c(-c2nc3sc4c(O)c(Cl)ccc4c3c(=O)n2Cc2cnco2)c1 [Example 83]	< 100 nM	< 100 nM
O=c1c2c(nc(-c3cc(F)c(F)cc3C3CC3)n1Cc1cc(C(F)(F)F)no1)sc1c(O)c(Cl)ccc12 [Example 85]	< 100 nM	< 100 nM
COc1ccc(-c2nc3sc4c(O)c(Cl)ccc4c3c(=O)n2Cc2cnn(C)c2)c(C2CC2)c1 [Example 86]	< 100 nM	< 100 nM
O=c1c2c(nc(-c3ncc(C(F)(F)F)cc3C3CC3)n1Cc1cc(C(F)(F)F)no1)sc1c(O)c(Cl)ccc12 [Example 96]	< 100 nM	< 100 nM
O=c1c2c(nc(-c3ncc(F)cc3C3CC3)n1Cc1cc(C(F)(F)F)no1)sc1c(O)c(Cl)ccc12 [Example 97]	< 100 nM	< 100 nM
O=c1c2c(nc(-c3ncc(C(F)(F)F)cc3C3CC3)n1Cc1cnc(C(F)(F)F)nc1)sc1c(O)c(Cl)ccc12 [Example 99]	< 100 nM	< 100 nM
COc1cc(C2CC2)c(-c2nc3sc4c(O)c(Cl)ccc4c3c(=O)n2Cc2cnco2)cc1Cl [Example 105, 7-chloro-2-(5-chloro-2-cyclopropyl-4-methoxyphenyl)-8-hydroxy-3-(oxazol-5-ylmethyl)benzo[4,5]thieno[2,3-d]pyrimidin-4(3H)-one]	< 100 nM	< 100 nM
O=c1c2c(nc(-c3ccc(Cl)cc3C3CC3)n1Cc1cnco1)sc1c(O)c(Cl)ccc12 [Example 106]	< 100 nM	< 100 nM
COc1ccc(-c2nc3sc4c(O)c(Cl)ccc4c3c(=O)n2Cc2cnco2)c(C2CCC2)c1 [Example 117]	100 to 500 nM	< 100 nM
O=c1c2c(nc(-c3cc(F)c(F)cc3C3CC3)n1Cc1cnco1)sc1c(O)c(Cl)ccc12 [Example 119]	< 100 nM	< 100 nM
COc1cc(-c2nc3sc4c(O)c(Cl)ccc4c3c(=O)n2Cc2cnco2)c(C2CC2)cc1Cl [Example 120]	< 100 nM	< 100 nM
COc1ccc(-c2nc3sc4c(O)c(Cl)ccc4c3c(=O)n2Cc2cnco2)c(Br)c1 [Example 122]	< 100 nM	< 100 nM
O=c1c2c(nc(-c3cc(F)c(Cl)cc3C3CC3)n1Cc1cnco1)sc1c(O)c(Cl)ccc12 [Example 123]	< 100 nM	< 100 nM
COc1ccc(-c2nc3sc4c(O)c(Cl)ccc4c3c(=O)n2Cc2cnco2)c(C(C)C)c1 [Example 125]	< 100 nM	< 100 nM
